One experiment concerns the target BACE2 (Rattus norvegicus (Rat), UniProt Q6IE75). Kind of experiment: Assay for BACE inhibition by measuring cellular TMEM27 cleavage. It counts as cell-based. The settings on record: INS-TMEM27 (INS1e rat cell line, inducible hTMEM27); shed TMEM27 by ELISA. The text has this:
Assay for BACE Inhibition by Measuring Cellular TMEM27 Cleavage:
The assay uses the principle of inhibition of human TMEM27 cleavage by endogenous cellular BACE2 in the Ins1e rat cell line and shedding from the cell surface into the culture medium, followed by detection in an ELISA assay Inhibition of BACE2 prevents the cleavage and shedding in a dose-dependent manner.
The stable cell line “INS-TMEM27” represents an INS1e-derived cell line with inducible expression (using the TetOn system) of full-length hTMEM27 in a doxycycline-dependent manner. The cells are cultured throughout the experiment in RPMI1640+Glutamax (Invitrogen) Penicillin/Streptomycin, 10% Fetal bovine serum, […], […], 100 micrograms/ml G418 and 100 microgram/ml hygromycin and are grown inadherent culture at 37° C. in a standard CO2 cell culture incubator.
INS-TMEM27 cells are seeded in 96-well plates. After 2 days in culture, BACE2 inhibitor is added in a range of concentrations as required by the assay and after a further two hours, doxycycline is added to a final concentration of 500 ng/ml. The cells are incubated for a further 46 hours and the supernatant harvested for detection of shed TMEM27.
An ELISA assay (using a pair of mouse anti-human-TMEM27 antibodies, raised against the extracellular domain of TMEM27) is used for detection of TMEM27 in the culture medium. An EC50 for BACE2 inhibition is calculated using the ELISA readout for each inhibitor concentration with standard curve-fitting software such as XLFit for the Excel spreadsheet program.
(An ELISA detects its analyte on a solid surface through an enzyme-linked reagent.)

Another experiment concerns the target BACE1 (Homo sapiens (Human), UniProt P56817). The experiment in a line: Cellular Aβ-lowering assay. It counts as cell-based. Particulars: HEK293 cells stably expressing human APP wt (APP695); Aβ40 in supernatant by ELISA after 18-20 hrs. The protocol: Cellular Aβ-Lowering Assay: Human HEK293 cells which are stably transfected with a vector expressing a cDNA of the human APP wt gene (APP695) were used to assess the potency of the compounds in a cellular assay. The cells were seeded in 96-well microtiter plates in cell culture medium (Iscove, plus 10% (v/v) fetal bovine serum, glutamine, penicillin/streptomycin) to about 80% confluence and the compounds were added at a 10× concentration in 1/10 volume of medium without FCS containing 8% DMSO (final concentration of DMSO was kept at 0.8% v/v). After 18-20 hrs incubation at 37° C. and 5% CO2 in a humidified incubator the culture supernatant was harvested for the determination of Aβ40 concentrations. […] After blocking of non-specific binding sites with e.g. 1% BSA and washing, the culture supernatants were added in suitable dilutions together with a horseradish peroxidase-coupled Aβ detection antibody (e.g., antibody 4G8, Senetek, Maryland Heights, Mo.) and incubated for 5 to 7 hrs. Subsequently the wells of the microtiter plate were washed extensively with Tris-buffered saline containing 0.05% Tween 20 and the assay was developed with tetramethylbenzidine/H2O2 in citric acid buffer. After stopping the reaction with one volume […] the reaction was measured in an ELISA reader at 450 nm wavelength. The concentrations of Aβ in the culture supernatants were calculated from a standard curve obtained with known amounts of pure Aβ peptide.

BACE2, sequence (Q6IE75 63-514): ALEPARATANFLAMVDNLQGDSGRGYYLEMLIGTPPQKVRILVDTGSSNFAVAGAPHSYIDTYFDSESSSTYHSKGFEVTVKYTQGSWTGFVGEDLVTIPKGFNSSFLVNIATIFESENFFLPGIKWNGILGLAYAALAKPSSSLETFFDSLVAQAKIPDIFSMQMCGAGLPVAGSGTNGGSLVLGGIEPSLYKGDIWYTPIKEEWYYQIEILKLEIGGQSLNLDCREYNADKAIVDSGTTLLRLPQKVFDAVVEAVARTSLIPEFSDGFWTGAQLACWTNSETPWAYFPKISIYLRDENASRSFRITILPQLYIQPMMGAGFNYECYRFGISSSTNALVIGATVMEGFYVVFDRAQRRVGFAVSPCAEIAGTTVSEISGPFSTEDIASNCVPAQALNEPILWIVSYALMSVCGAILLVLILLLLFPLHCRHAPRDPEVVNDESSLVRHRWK
BACE1, sequence (P56817 46-501): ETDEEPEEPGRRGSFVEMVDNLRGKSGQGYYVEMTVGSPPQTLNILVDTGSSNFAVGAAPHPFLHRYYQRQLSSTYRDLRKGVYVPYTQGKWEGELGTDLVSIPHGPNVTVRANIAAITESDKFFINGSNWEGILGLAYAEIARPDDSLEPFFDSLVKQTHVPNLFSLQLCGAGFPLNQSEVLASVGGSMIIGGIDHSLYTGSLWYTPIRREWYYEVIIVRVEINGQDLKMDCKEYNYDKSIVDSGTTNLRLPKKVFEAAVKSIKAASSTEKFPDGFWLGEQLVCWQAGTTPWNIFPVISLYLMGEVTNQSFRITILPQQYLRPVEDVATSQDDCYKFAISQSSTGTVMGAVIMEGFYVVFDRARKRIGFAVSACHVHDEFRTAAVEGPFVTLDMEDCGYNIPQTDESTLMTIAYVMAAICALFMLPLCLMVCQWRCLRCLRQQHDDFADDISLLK

Consider `C[C@]1(c2cc(NC(=O)c3ccc(C(F)F)cn3)ccc2F)N=C(N)OC[C@@H]1F` [Example 11, 5-Difluoromethyl-pyridine-2-carboxylic acid [3-((4R,5R)-2-amino-5-fluoro-4-methyl-5,6-dihydro-4H-[1,3]oxazin-4-yl)-4-fluoro-phenyl]-amide], for which the IC50 (commonly the concentration needed to halve the response being measured) stood at 1 nM on BACE2 and 3 nM on BACE1.

As to `COc1ccc(C(=O)Nc2ccc(F)c([C@@]3(C)N=C(N)OC[C@@H]3F)c2)nc1` [Example 13, 5-Methoxy-pyridine-2-carboxylic acid [3-((4R,5R)-2-amino-5-fluoro-4-methyl-5,6-dihydro-4H-[1,3]oxazin-4-yl)-4-fluoro-phenyl]-amide], the IC50 worked out at 65 nM at BACE2 and 4 nM against BACE1.

Consider `C[C@]1(c2cc(NC(=O)c3ccc(C#CC4CC4)cn3)ccc2F)N=C(N)OC[C@@H]1F` [Example 14, 5-Cyclopropylethynyl-pyridine-2-carboxylic acid [3-((4R,5R)-2-amino-5-fluoro-4-methyl-5,6-dihydro-4H-[1,3]oxazin-4-yl)-4-fluoro-phenyl]-amide], for which the IC50 against BACE2 came to 9 nM; against BACE1, 4 nM.

As to `C[C@]1(c2cc(NC(=O)c3cnc(C(F)F)cn3)ccc2F)N=C(N)OC[C@@H]1F` [Example 15, 5-Difluoromethyl-pyrazine-2-carboxylic acid [3-((4R,5R)-2-amino-5-fluoro-4-methyl-5,6-dihydro-4H-[1,3]oxazin-4-yl)-4-fluoro-phenyl]-amide], the IC50 amounted to 23 nM on BACE2 and 5 nM against BACE1.

`C[C@]1(c2cc(NC(=O)c3cnc(OCC4CC4)cn3)ccc2F)N=C(N)OC[C@@H]1F` [Example 16, 5-Cyclopropylmethoxy-pyrazine-2-carboxylic acid [3-((4R,5R)-2-amino-5-fluoro-4-methyl-5,6-dihydro-4H-[1,3]oxazin-4-yl)-4-fluoro-phenyl]-amide]: the IC50 is 590 nM at BACE2 and 5 nM on BACE1.

As for `C[C@]1(c2cc(NC(=O)c3ccc(OCC(F)(F)F)cn3)ccc2F)N=C(N)OC[C@@H]1F` [Example 17, 5-(2,2,2-Trifluoro-ethoxy)-pyridine-2-carboxylic acid [3-((4R,5R)-2-amino-5-fluoro-4-methyl-5,6-dihydro-4H-[1,3]oxazin-4-yl)-4-fluoro-phenyl]-amide], the IC50 against BACE2 was 2300 nM; against BACE1, 8 nM.

For `Cc1cc(C(=O)Nc2ccc(F)c([C@@]3(C)N=C(N)OC[C@@H]3F)c2)c(C)o1` [Example 18, 2,5-Dimethyl-furan-3-carboxylic acid [3-((4R,5R)-2-amino-5-fluoro-4-methyl-5,6-dihydro-4H-[1,3]oxazin-4-yl)-4-fluoro-phenyl]-amide], the IC50 against BACE2 is 20 nM; at BACE1, 8 nM.

Turning to `C[C@]1(c2cc(NC(=O)c3ccc(F)cn3)ccc2F)N=C(N)OC[C@@H]1F` [Example 20, 5-Fluoro-pyridine-2-carboxylic acid [3-((4R,5R)-2-amino-5-fluoro-4-methyl-5,6-dihydro-4H-[1,3]oxazin-4-yl)-4-fluoro-phenyl]-amide], the IC50 against BACE2 amounted to 7 nM; against BACE1, 10 nM.

As to `C[C@]1(c2cc(NC(=O)c3ccc(C4CC4)cn3)ccc2F)N=C(N)OC[C@@H]1F` [Example 22, 5-Cyclopropyl-pyridine-2-carboxylic acid [3-((4R,5R)-2-amino-5-fluoro-4-methyl-5,6-dihydro-4H-[1,3]oxazin-4-yl)-4-fluoro-phenyl]-amide], the values for the IC50 at BACE2 and at BACE1 were 124 nM and 14 nM, respectively.

As for `C[C@]1(c2cc(NC(=O)c3cnc(Cl)s3)ccc2F)N=C(N)OC[C@@H]1F` [Example 26, 2-Chloro-thiazole-5-carboxylic acid [3-((4R,5R)-2-amino-5-fluoro-4-methyl-5,6-dihydro-4H-[1,3]oxazin-4-yl)-4-fluoro-phenyl]-amide], the IC50 on BACE2 turned out to be 1400 nM; at BACE1 it was 81 nM.

Turning to `Cn1nc(C(F)(F)F)cc1C(=O)Nc1ccc(F)c([C@@]2(C)N=C(N)OC[C@@H]2F)c1` [Example 27, 2-Methyl-5-trifluoromethyl-2H-pyrazole-3-carboxylic acid [3-((4R,5R)-2-amino-5-fluoro-4-methyl-5,6-dihydro-4H-[1,3]oxazin-4-yl)-4-fluoro-phenyl]-amide], the values for the IC50 on BACE2 and against BACE1 were 709 nM and 90 nM, respectively.

As to `C[C@]1(c2cc(NC(=O)c3n[nH]cc3Cl)ccc2F)N=C(N)OC[C@@H]1F` [Example 28, 4-Chloro-1H-pyrazole-3-carboxylic acid [3-((4R,5R)-2-amino-5-fluoro-4-methyl-5,6-dihydro-4H-[1,3]oxazin-4-yl)-4-fluoro-phenyl]-amide], the values for the IC50 against BACE2 and against BACE1 were 35 nM and 130 nM, respectively.

Take `C[C@]1(c2cc(NC(=O)c3ncc(C#N)cc3Cl)ccc2F)N=C(N)OC[C@H]1F` [Example 35, 3-Chloro-5-cyano-pyridine-2-carboxylic acid [3-((4R,5S)-2-amino-5-fluoro-4-methyl-5,6-dihydro-4H-[1,3]oxazin-4-yl)-4-fluoro-phenyl]-amide]: the IC50 against BACE2 is 511 nM; on BACE1, 82 nM.

`C[C@]1(c2cc(NC(=O)c3ncc(C(F)(F)F)cc3Cl)ccc2F)N=C(N)OC[C@H]1F` [Example 36, 3-Chloro-5-trifluoromethyl-pyridine-2-carboxylic acid [3-((4R,5S)-2-amino-5-fluoro-4-methyl-5,6-dihydro-4H-[1,3]oxazin-4-yl)-4-fluoro-phenyl]-amide]: the figures for the IC50 at BACE2 and at BACE1 were 4030 nM and 140 nM, respectively.

On to `C[C@]1(F)COC(N)=N[C@]1(C)c1cc(NC(=O)c2ncccc2OCC(F)(F)F)ccc1F` [Example 37, 3-(2,2,2-Trifluoro-ethoxy)-pyridine-2-carboxylic acid [3-((4R,5R)-2-amino-5-fluoro-4,5-dimethyl-5,6-dihydro-4H-[1,3]oxazin-4-yl)-4-fluoro-phenyl]-amide], for which the results for the IC50 against BACE2 and on BACE1 were 226 nM and 22 nM, respectively.

Regarding `C[C@]1(F)COC(N)=N[C@]1(C)c1cc(NC(=O)c2ccc(C#N)cn2)ccc1F` [Example 38, 5-Cyano-pyridine-2-carboxylic acid [3-((4R,5R)-2-amino-5-fluoro-4,5-dimethyl-5,6-dihydro-4H-[1,3]oxazin-4-yl)-4-fluoro-phenyl]-amide], the IC50 on BACE2 turned out to be 23 nM; against BACE1, 0.4 nM.

For `C[C@]1(F)COC(N)=N[C@]1(C)c1cc(NC(=O)c2ncc(Cl)cc2Cl)ccc1F` [Example 39, 3,5-Dichloro-pyridine-2-carboxylic acid [3-((4R,5R)-2-amino-5-fluoro-4,5-dimethyl-5,6-dihydro-4H-[1,3]oxazin-4-yl)-4-fluoro-phenyl]-amide], the IC50 against BACE2 amounted to 4 nM; at BACE1, 2 nM.

Consider `C[C@]1(F)COC(N)=N[C@]1(C)c1cc(NC(=O)c2nn(C(F)F)cc2Cl)ccc1F` [Example 40, 4-Chloro-1-difluoromethyl-1H-pyrazole-3-carboxylic acid [3-((4R,5R)-2-amino-5-fluoro-4,5-dimethyl-5,6-dihydro-4H-[1,3]oxazin-4-yl)-4-fluoro-phenyl]amide], for which the IC50 at BACE2 turned out to be 31 nM; against BACE1, 2 nM.

Take `C[C@]1(F)COC(N)=N[C@]1(C)c1cc(NC(=O)c2ccc(Cl)cn2)ccc1F` [Example 41, 5-Chloro-pyridine-2-carboxylic acid [3-((4R,5R)-2-amino-5-fluoro-4,5-dimethyl-5,6-dihydro-4H-[1,3]oxazin-4-yl)-4-fluoro-phenyl]-amide]: the results for the IC50 against BACE2 and against BACE1 were 6 nM and 3 nM, respectively.

Consider `C[C@]1(F)COC(N)=N[C@]1(C)c1cc(NC(=O)c2ccc(F)cn2)ccc1F` [Example 42, 5-Fluoro-pyridine-2-carboxylic acid [3-((4R,5R)-2-amino-5-fluoro-4,5-dimethyl-5,6-dihydro-4H-[1,3]oxazin-4-yl)-4-fluoro-phenyl]-amide], for which the concentration for half-maximal inhibition (IC50) on BACE2 turned out to be 74 nM; against BACE1 it was 11 nM.
